# B1: Organic anion transporter 3 (Homo sapiens) (protein)
# chain: MTFSEILDRVGSMGHFQFLHVAILGLPILNMANHNLLQIFTAATPVHHCRPPHNASTGPWVLPMGPNGKPERCLRFVHPPNASLPNDTQRAMEPCLDGWVYNSTKDSIVTEWDLVCNSNKLKEMAQSIFMAGILIGGLVLGDLSDRFGRRPILTCSYLLLAASGSGAAFSPTFPIYMVFRFLCGFGISGITLSTVILNVEWVPTRMRAIMSTALGYCYTFGQFILPGLAYAIPQWRWLQLTVSIPFFVFFLSSWWTPESIRWLVLSGKSSKALKILRRVAVFNGKKEEGERLSLEELKLNLQKEISLAKAKYTASDLFRIPMLRRMTFCLSLAWFATGFAYYSLAMGVEEFGVNLYILQIIFGGVDVPAKFITILSLSYLGRHTTQAAALLLAGGAILALTFVPLDLQTVRTVLAVFGKGCLSSSFSCLFLYTSELYPTVIRQTGMGVSNLWTRVGSMVSPLVKITGEVQPFIPNIIYGITALLGGSAALFLPETLNQPLPETIEDLENWSLRAKKPKQEPEVEKASQRIPLQPHGPGLGSS
# Experiments:
# [1] = target: T1, Organic anion transporter 3 (Homo sapiens, UniProt Q8TCC7); experiment: (§1) TP_TRANSPORTER: uptake in Xenopus laevis oocytes; assay type: functional, cell-based; conditions: oocyte
# T1 sequence (Q8TCC7 whole entry): B1 chain
# [2] = target: T1, Organic anion transporter 3; experiment: TP_TRANSPORTER: inhibition of E1S uptake (E1S: 0.05 uM, Bumetanide: 5 uM) in Xenopus laevis oocytes; assay type: functional, cell-based; conditions: oocyte
# [3] = target: T1, Organic anion transporter 3; experiment: TP_TRANSPORTER: inhibition of E1S uptake (E1S: 0.05 uM, Corticosterone: 5 uM) in Xenopus laevis oocytes; assay type: functional, cell-based; conditions: oocyte
# [4] = target: T1, Organic anion transporter 3; experiment: TP_TRANSPORTER: inhibition of E1S uptake (E1S: 0.05 uM, Diclofenac: 5 uM) in Xenopus laevis oocytes; assay type: functional, cell-based; conditions: oocyte
# [5] = target: T1, Organic anion transporter 3; experiment: TP_TRANSPORTER: inhibition of E1S uptake (E1S: 0.05 uM, Glutarate: 5 uM) in Xenopus laevis oocytes; assay type: functional, cell-based; conditions: oocyte
# [6] = target: T1, Organic anion transporter 3; experiment: TP_TRANSPORTER: inhibition of E1S uptake (E1S: 0.05 uM, Guanidine: 5 uM) in Xenopus laevis oocytes; assay type: functional, cell-based; conditions: oocyte
# [7] = target: T1, Organic anion transporter 3; experiment: TP_TRANSPORTER: inhibition of E1S uptake (E1S: 0.05 uM, Ibuprofen: 5 uM) in Xenopus laevis oocytes; assay type: functional, cell-based; conditions: oocyte
# [8] = target: T1, Organic anion transporter 3; experiment: TP_TRANSPORTER: inhibition of E1S uptake (E1S: 0.05 uM, Indomethacin: 5 uM) in Xenopus laevis oocytes; assay type: functional, cell-based; conditions: oocyte
# [9] = target: T1, Organic anion transporter 3; experiment: TP_TRANSPORTER: inhibition of E1S uptake (E1S: 0.05 uM, Ouabain: 5 uM) in Xenopus laevis oocytes; assay type: functional, cell-based; conditions: oocyte
# [10] = target: T1, Organic anion transporter 3; experiment: TP_TRANSPORTER: inhibition of E1S uptake (E1S: 0.05 uM, PCG: 5 uM) in Xenopus laevis oocytes; assay type: functional, cell-based; conditions: oocyte
# [11] = target: T1, Organic anion transporter 3; experiment: TP_TRANSPORTER: inhibition of E1S uptake (E1S: 0.05 uM, DHEAS: 5 uM) in Xenopus laevis oocytes; assay type: functional, cell-based; conditions: oocyte
# [12] = target: T1, Organic anion transporter 3; experiment: TP_TRANSPORTER: inhibition of E1S uptake (E1S: 0.05 uM, Probenecid: 5 uM) in Xenopus laevis oocytes; assay type: functional, cell-based; conditions: oocyte
# [13] = target: T1, Organic anion transporter 3; experiment: TP_TRANSPORTER: inhibition of E1S uptake (E1S: 0.05 uM, Quinidine: 5 uM) in Xenopus laevis oocytes; assay type: functional, cell-based; conditions: oocyte
# [14] = target: T1, Organic anion transporter 3; experiment: TP_TRANSPORTER: inhibition of E1S uptake (E1S: 0.05 uM, BSP: 5 uM) in Xenopus laevis oocytes; assay type: functional, cell-based; conditions: oocyte
# [15] = target: T1, Organic anion transporter 3; experiment: TP_TRANSPORTER: inhibition of E1S uptake (E1S: 0.05 uM, AZT: 5 uM) in Xenopus laevis oocytes; assay type: functional, cell-based; conditions: oocyte
# [16] = substrate: C[C@]12CC[C@@H]3c4ccc(OS(=O)(=O)O)cc4CC[C@H]3[C@@H]1CCC2=O; experiment: as §1; assay type: functional, cell-based, Oocyte
# [17] = substrate: Nc1ccc(C(=O)NCC(=O)O)cc1; experiment: as §1; assay type: functional, cell-based, Oocyte
# [18] = substrate: CN(Cc1cnc2nc(N)nc(N)c2n1)c1ccc(C(=O)N[C@@H](CCC(=O)O)C(=O)O)cc1; experiment: as §1; assay type: functional, cell-based, Oocyte
# [19] = substrate: CN/C(=N/CCSCc1nc[nH]c1C)NC#N; experiment: cells, lysate or membranes named
molecule,measurement,setting,value
C[C@@H]1Cc2c(Cl)cc(C(=O)N[C@@H](Cc3ccccc3)C(=O)O)c(O)c2C(=O)O1 [3R14S-OCHRATOXIN A],Activity,[1],substrate [+]
Nc1nc2c(ncn2COCCO)c(=O)[nH]1 [ACYCLOVIR],Activity,[1],is not a substrate [-]
CCCCNc1cc(C(=O)O)cc(S(N)(=O)=O)c1Oc1ccccc1 [BUMETANIDE],Activity,[2],inhibitor [(at a rough estimate) 10 % of control]
C[C@]12C[C@H](O)[C@H]3[C@@H](CCC4=CC(=O)CC[C@@]43C)[C@@H]1CC[C@@H]2C(=O)CO [CORTICOSTERONE],Activity,[3],inhibitor [(at a rough estimate) 30 % of control]
O=C(O)Cc1ccccc1Nc1c(Cl)cccc1Cl [DICLOFENAC],Activity,[4],inhibitor [(at a rough estimate) 10 % of control]
C[C@]12CC[C@@H]3c4ccc(O)cc4CC[C@H]3[C@@H]1CC[C@@H]2O[C@@H]1O[C@H](C(=O)O)[C@@H](O)[C@H](O)[C@H]1O [ESTRADIOL 17B GLUCURONIDE],Activity,[1],substrate [+]
O=C(O)[C@H]1O[C@@H](O)[C@H](O)[C@@H](O)[C@@H]1O [GLUCURONATE],Activity,[1],is not a substrate [-]
O=C(O)CCCC(=O)O [GLUTARATE],Activity,[1],substrate [+]
same,Activity,[5],inhibitor [(at a rough estimate) 35 % of control]
N=C(N)N [GUANIDINE],Activity,[6],is not an inhibitor [-]
CC(C)Cc1ccc(C(C)C(=O)O)cc1 (centres undefined) [IBUPROFEN],Activity,[7],inhibitor [(at a rough estimate) 10 % of control]
same,Activity,[1],is not a substrate [-]
COc1ccc2c(c1)c(CC(=O)O)c(C)n2C(=O)c1ccc(Cl)cc1 [INDOMETHACIN],Activity,[8],inhibitor [(at a rough estimate) 15 % of control]
C[C@@H]1O[C@@H](O[C@H]2C[C@@H](O)[C@]3(CO)[C@H]4[C@H](O)C[C@]5(C)[C@@H](C6=CC(=O)OC6)CC[C@]5(O)[C@@H]4CC[C@]3(O)C2)[C@H](O)[C@H](O)[C@H]1O [OUABAIN],Activity,[9],is not an inhibitor [-]
CC1(C)S[C@@H]2[C@H](NC(=O)Cc3ccccc3)C(=O)N2[C@H]1C(=O)O [PENICILLIN G],Activity,[10],inhibitor [(at a rough estimate) 35 % of control]
C[C@]12CC[C@H](OS(=O)(=O)O)CC1=CC[C@@H]1[C@@H]2CC[C@]2(C)C(=O)CC[C@@H]12 [PRASTERONE SULFURIC ACID],Activity,[11],inhibitor [(at a rough estimate) 10 % of control]
same,Activity,[1],substrate [+]
CCCN(CCC)S(=O)(=O)c1ccc(C(=O)O)cc1 [PROBENECID],Activity,[12],inhibitor [(at a rough estimate) 10 % of control]
C=C[C@H]1C[N@@]2CC[C@H]1C[C@@H]2[C@@H](O)c1ccnc2ccc(OC)cc12 [QUINIDINE],Activity,[13],inhibitor [(at a rough estimate) 55 % of control]
O=C(O)c1ccccc1O [SALICYLIC ACID],Activity,[1],substrate [+]
O=C(O)CCC(=O)O [SUCCINIC ACID],Activity,[1],is not a substrate [-]
O=C1OC(c2ccc(O)c(S(=O)(=O)[O-])c2)(c2ccc(O)c(S(=O)(=O)[O-])c2)c2c(Br)c(Br)c(Br)c(Br)c21.[Na+].[Na+] [SULFOBROMOPHTHALEIN SODIUM],Activity,[14],inhibitor [(at a rough estimate) 55 % of control]
O=c1[nH]c(=O)c2[nH]c(=O)[nH]c2[nH]1 [URIC ACID],Activity,[1],substrate [+]
CCCC(CCC)C(=O)O [VALPROIC ACID],Activity,[1],is not a substrate [-]
Cc1cn([C@H]2C[C@H](N=[N+]=[N-])[C@@H](CO)O2)c(=O)[nH]c1=O [ZIDOVUDINE],Activity,[15],is not an inhibitor [-]
B1,Km,[16],3.1 µM
same,Km,[17],87.2 µM
same,Km,[18],10.9 µM
same,Km,[19],57.4 µM
